This is an account of results in patent publication US20240252582A1, “METHODS FOR TREATING AMBLYOPIA” (City University of Hong Kong, priority 2023, published 2024).

Assay [1] has as its system juvenile C57BL/6 mice model of amblyopia (LTMD). The assay can be described thus: Visual water behavioral test of visual acuity after long-term monocular deprivation. In kind it is in vivo. The following applies: for Visual acuity: Long-term MD (P21-P42) mice, WT adult 0.44; for Performance (percentage accuracy) during training after treatment / Visual acuity, Mean±SEM (FIG. 2G, post hoc analysis) / Cutoff (70% accuracy) achieved during testing: juvenile LTMD mice; for Performance (percentage accuracy) during training after treatment: cutoff 70% accuracy (FIG. 2F); for Visual acuity, Mean±SEM (FIG. 2G, post hoc analysis): WT 0.44±0.02 (P>0.05). From the text:
Amblyopia patients usually have poor visual acuity. It is believed that the method according to the invention can reverse the lost visual acuity in amblyopia patients. FIGS. 2A-2G illustrate the assessment of visual acuity using visual water maze. Dotted line represents the 70% accuracy as cutoff. As shown in FIGS. 2C-2E, WT adult (P60) mice with no MD show cutoff at cpd 0.45 achieved during testing by all the animals (12 animals). After LTMD in juvenile followed by saline (infusion)/CCK8s treatment, the mice show cutoff at cpd 0.30 and 0.52 respectively achieved during testing by all the animals (11 animals/12 animals respectively). After LTMD in juvenile followed by saline (i.p)/CCKBR agonist (3r1) treatment, the mice show cutoff at cpd 0.33 and 0.46 respectively achieved during testing by all the animals (11 animals/15 animals respectively). […] The performance of the animals during training in WT adult (P60) with no MD, before and after remained unchanged. After LTMD in juvenile, the performance of animals during training before and after saline (infusion) treatment remained unchanged and the performance of animals during training before and after CCK8s treatment show the difference. […] After LTMD in juvenile, the performance of animals during training before and after saline (i.p) treatment remained unchanged and the performance of animals during training before and after CCK-agonist (3r1) treatment show the difference. […] A significant difference is observed between saline (infusion) and CCK8s treated animals (P<0.001) and in between saline (i.p) and CCKBR agonist (3r1) (P<0.001). No significant difference in visual acuity observed in adult (P60), no MD and juvenile LTMD following CCK8s and CCKBR agonist (3r1) treated animals (P>0.05). Error bars in FIG. 2G indicate the standard error of the mean (SEM).
Visual water behavioral test is performed to show visual acuity improvement following long-term monocular deprivation after administration of CCK8s and CCKBR agonist (3r1). Each animal learns quickly to associate swimming to the escape platform placed below the screen displaying grating stimuli during pre-training phase and post-training phase. Animals of all groups learn serendipitously during training to swim to the end of the divider, and then look at each screen several times before making their choice.
FIGS. 2A and 2B show the behavioural experimental design of this example: (CCK8s) infusion in V1 and CCKBR agonist (3r1)(i.p). The testing criterion in the training phase (from P42 to P47) is reached for all mice within four sessions (32 trials). Average performance above 70% accuracy is maintained for all mice of different groups (FIG. 2F). The visual acuity of the groups is illustrated in FIGS. 2C-2E.

The test system is the same in assay [2]. The assay can be described thus: In-vivo electrophysiology (spike recording in V1), contralateral bias index after long-term monocular deprivation. The procedure: The mice are anesthetized through the application of a K-X combination during the surgical preparation. The body temperatures of the mice are maintained at 37° C. by use of a homeostatically controlled heating pad during the surgery. Following the induction of anesthesia, each mouse is mounted on a stereotaxic instrument (RWD Life Science, Shenzhen, China) and an incision is made along the midline of the head. The stereotaxic instrument is adjusted to place the bregma and lambda points of the skull on a flat skull surface (anteroposterior: −3.2 mm to −4.0 mm; mediolateral: 3.0-3.8 mm, relative to bregma). A piece of the scalp over the V1 is removed to expose the cortex, and a bone screw is fixed in the frontal bone as the reference electrode. The exposed cortical surface is then covered with extracellular saline (in mM: 125 NaCl, 5 KCl, 10 glucose, 10 4-(2-hydroxyethyl)-1-piperazineethanesulphonicacid [HEPES], and 2 CaCl2; pH adjusted to 7.4) to prevent drying of the surface. The electrode is lowered into the brain to an appropriate depth (V1≤1 mm) and is allowed to settle for 30 min before recording is begun. In each mouse, 3-4 separate penetrations are spaced evenly at least 200 μm apart across the binocular region of V1. The eyes are kept moist with ophthalmic lubricant ointment until recording to prevent drying while enabling clear optical transmission. At the end of the recording, the mice are euthanized by injection of an overdose of Dorminal (300 mg/kg).
Visual stimuli of sinusoidal drifting gratings with increasing orientation angles(0-330°) and 0.4 cpd are presented in random order to alternate eyes. The spike recordings are performed with the use of a polyimide-coated platinum/iridium (70:30) ribbon microelectrode array (Clunbury Scientific LLC, USA). The tip resistances are 30-50 kΩ. The A-M Systems 3600 (A-M Systems, USA) and CED Micro 1401-3 (Cambridge Electronic Design, UK) instruments are used as the amplifier and data acquisition system, respectively. The signals are sampled at 25 kHz and bandpass-filtered at 300 Hz-3 KHz for spike, amplified, and fed to spike2 software (Cambridge Electronic Design, UK). Offline analysis is performed using MATLAB (R2020b, Math Works, USA). To begin, the raw data are transformed into a MATLAB-compatible format. Spike sorting is used to distinguish various units collected at the same time in the spike data. Wave clus, a MATLAB tool, is used to categorize the units based on the characteristics of their waveforms.
The neuronal response in the Visual cortex (V1) is recorded extracellularly, while the same visual stimulus with varied orientation is presented to either of the eyes alternatively, and the relative strength of the response is determined.
To quantify the deprivation effect, the inventors calculate the contralateral bias index (CBI) from spikes (response from the single neuron) using the following formula:
where NT is the total number of units and NX is the number of units with OD scores equal to x (x=1, 2, 3, 5, 6, 7). For the sum of the number of cells in each category is used to calculate the CBI for each animal.
FIGS. 1A and 1B, show the timeline of the experimental setup, i.e. LTMD, surgery, dosing, and in-vivo electrophysiology used in the second and third experiments. In the second experiments, in juvenile after LTMD, saline or CCK8s (Cholecystokinin octapeptide (Tocris Bioscience, UK): 1 ul each day (10 ng/ul), Cholecystokinin octapeptide (Tocris Bioscience, UK)) is infused (treatment) for 15 days (from P42 to P57) in V1. […] The ipsilateral eye is dominated. Contrarily, in the group treated with CCK8s (infusion in V1), the ocular dominance shifts from the ipsilateral eye towards the contralateral eye (CBI=0.65, 12 animals) (FIG. 1G).
In juvenile after LTMD, 3r1 (a type of CCKBR agonist, Guangzhou Institute of Biomedicine and Health, affiliated with the Chinese Academy of Sciences, Guangzhou, China) (4.18 uM) is administered intraperitoneally (i.p). […]

Non-standard residues stand in square brackets, D forms with d. Phe(3-Br) = N[C@@H](Cc1cccc(Br)c1)C(=O)O; Nle = CCCC[C@H](N)C(=O)O

Substance “Cholecystokinin octapeptide [CCK8s, reference compound]” came in with a Visual acuity in assay [1] (infusion, saline (infusion) 0.3) of 0.5 c/d. Moreover, in assay [1], the “Performance (percentage accuracy) during training after treatment” value was “reaches beyond the cutoff”. For the same substance, the “Visual acuity, Mean±SEM (FIG. 2G, post hoc analysis)” value in assay [1] (infusion, saline 0.309±0.01 (P<0.001)) came to 0.5±0.01 c/d. The “Cutoff (70% accuracy) achieved during testing” value in assay [1] (infusion, saline (infusion) 0.30, WT 0.45 (FIG. 2D)) amounted to 0.52 cpd. For the same substance, in assay [2] (juvenile LTMD (P21-P42) mice, infusion in V1, 1 ul each day (10 ng/ul), 15 days (P42-P57), saline CBI=0.33), the “Contralateral bias index (CBI)” value was 0.65. In addition, the “Histogram of V1 cells, eye response bias” value in assay [2] (juvenile LTMD mice, infusion 15 days (FIG. 1G)) is “strong contralateral eye bias”.

As for Ac-W[Nle]D[Phe(3-Br)]-NH2 [3r1], the Visual acuity in assay [1] (i.p., saline (i.p) 0.33) is on record as 0.46 c/d. In assay [1], the “Performance (percentage accuracy) during training after treatment” value is on record as “reaches beyond the cutoff”. Moreover, in assay [1] (i.p., saline (i.p) 0.33, WT 0.45 (FIG. 2E)), the “Cutoff (70% accuracy) achieved during testing” value is listed as 0.46 cpd. In assay [1] (i.p., saline (i.p) 0.33±0.01 (P<0.001)), the “Visual acuity, Mean±SEM (FIG. 2G, post hoc analysis)” value is recorded as 0.46±0.02 c/d. In addition, the “Contralateral bias index (CBI)” value turned out to be 0.66 in assay [2] (juvenile LTMD mice, i.p., 4 doses on alternate days for 7 days, 0.0122890 mg/kg per dose, saline CBI=0.31) and 0.68 in assay [2] (juvenile LTMD mice, i.p., 8 doses on alternate days for 14 days, 0.0122890 mg/kg per dose, saline CBI=0.31). Further, the “Histogram of V1 cells, eye response bias” value in assay [2] (juvenile LTMD mice, treatment for fourteen days (FIG. 1J)) was “strong contralateral eye bias”; in assay [2] (juvenile LTMD mice, treatment for seven days (FIG. 1I)) it was “strong contralateral eye bias”.
